We go through 5 molecules from article PMC5641865, “A screen for kinase inhibitors identifies antimicrobial imidazopyridine aminofurazans as specific inhibitors of the Listeria monocytogenes PASTA kinase PrkA” (The Journal of Biological Chemistry, 2017).

Structures are written as SMILES. Where two headings read alike, the source gives them in different places. A value given as a limit tells only on which side of the number the result lay.

Holding throughout (type): biochemical
Assay [1] concerns the target T1, PrkA kinase domain; PrkA(1-338) (Listeria monocytogenes, UniProt A0A0H3GI69).
T1 construct: gene LMRG_00967; cytosolic kinase domain, residues 1-338, pGEX-2T GST fusion from E. coli Rosetta BL21, GST cut off with thrombin
As to the kind of experiment: Kinase-Glo ATP depletion assay. An excerpt:
Kinase-Glo ATP depletion assay on PrkA kinase domain; PrkA(1-338)
Background: In Kinase-Glo more light means more ATP remaining.

Assay [2] deals with T2, Stk1 kinase domain (Staphylococcus aureus, UniProt A0A0H2XGG5).
T2 construct: gene pknB; cytosolic kinase domain, residues 1-348, pGEX-2T GST fusion from E. coli Rosetta BL21, GST cut off with thrombin; Mn2+ in place of Mg2+
Nature of the assay: Kinase-Glo ATP depletion assay.

In assay [3] the target is T2, Stk1 kinase domain. As to the kind of experiment: kinase inhibition assay (supplement).
Setting [4] is: read-out: Relative IC50 (95% CI).

T1 sequence (A0A0H3GI69 entry or part of it): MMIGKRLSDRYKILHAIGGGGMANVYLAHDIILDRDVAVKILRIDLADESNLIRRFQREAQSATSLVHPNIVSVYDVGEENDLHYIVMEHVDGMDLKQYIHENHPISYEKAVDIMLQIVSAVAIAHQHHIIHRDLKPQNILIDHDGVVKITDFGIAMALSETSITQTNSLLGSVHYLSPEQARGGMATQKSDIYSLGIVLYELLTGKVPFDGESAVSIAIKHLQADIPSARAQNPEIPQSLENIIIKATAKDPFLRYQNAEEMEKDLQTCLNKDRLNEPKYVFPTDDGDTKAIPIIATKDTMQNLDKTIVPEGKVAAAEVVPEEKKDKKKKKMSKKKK
T2 sequence (A0A0H2XGG5 entry or part of it): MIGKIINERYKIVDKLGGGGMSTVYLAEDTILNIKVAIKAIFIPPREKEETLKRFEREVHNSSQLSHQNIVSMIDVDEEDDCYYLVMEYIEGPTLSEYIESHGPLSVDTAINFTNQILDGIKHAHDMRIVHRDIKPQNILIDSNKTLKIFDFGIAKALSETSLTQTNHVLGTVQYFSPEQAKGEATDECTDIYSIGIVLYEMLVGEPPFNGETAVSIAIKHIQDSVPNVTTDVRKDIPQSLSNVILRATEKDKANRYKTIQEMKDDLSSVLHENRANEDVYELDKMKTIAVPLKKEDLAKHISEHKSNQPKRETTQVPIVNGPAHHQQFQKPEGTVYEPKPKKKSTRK

`CCn1c(-c2nonc2N)nc2c(C#CC(C)(C)O)ncc(OCC3CCNCC3)c21` [GSK554170A]: the IC50 (commonly the concentration needed to halve the response being measured) in assay [1] (setting [4]) came to 0.45 µM.

With `CCn1c(-c2nonc2N)nc2c(C#CC(C)(C)O)ncc(OC[C@@H]3CCCN3)c21` [GSK614526A], in assay [1], it took 0.42 µM to reach half-maximal inhibition (IC50).

With `CCn1c(-c2nonc2N)nc2c(C#CC(C)(C)O)ncc(OC[C@H]3CCCNC3)c21` [GSK690693], the concentration for half-maximal inhibition (IC50) in assay [1] (setting [4]) is 0.84 µM; against Stk1 kinase domain [2], more than 40 µM.

Turning to `CCn1c(-c2nonc2N)nc2c(C#CC(C)(C)O)nc(OCCN)cc21` [GSK902056A], the IC50 in assay [1] (setting [4]) amounted to 0.41 µM.

For the molecule `O=C1Nc2ccccc2C1=C1Nc2ccccc2C1=NO` [indirubin-3′-monoxime], the “kinase inhibition assay (supplement)” value at Stk1 kinase domain [3] is “Stk1 can be biochemically inhibited by the kinase inhibitor indirubin-3′-monoxime”.
